The values that follow are results of earlier work, collected in PMC6385020 (Molecules, 2019).

Values joined by “and” are separate entries in the source; they are usually repeats but may differ in a detail not shown here. Equal entries are not always repeated.

For one data set, the system named is 21CTA G4. Set-up: method as in PMID 21528379. The following applies: cited from earlier work.
The test system of a further data set is 22AG G4. Further details: method as in PMID 28825434. The settings on record: K+100 buffer, 20 °C; cited from earlier work.
For the next data set, the system named is c-myc G4. Set-up: method as in PMID 21528379. The following applies: cited from earlier work.
Data set [1] has as its system all the tested G4s structures. Further details: method as in PMID 21528379. The settings on record: cited from earlier work.

As for `CN1C(=Cc2cc[n+](C)c3ccccc23)Sc2ccccc21` [TO, Thiazole Orange], the KA with 21CTA G4 is 1 × 10^6 (b) M^−1; in the data set with 22AG G4, 1 × 10^6 (a) M^−1; in the data set on c-myc G4 it was 5 × 10^6 M^−1 and 5 × 10^6 (b) M^−1. In addition, the “affinity constants towards all the tested G4s structures (Ka)” value in data set [1] is reported as ~ 10^6 M^−1.
